The values below come from EP4810483A1, “6- AND 5-HETEROARYL DERIVATIVES AND USE THEREOF” (CMS Research & Development Pte. Ltd., priority 2023, dated 2025).

Read-outs that look alike come from different tables or passages of the source.

Data set [1] concerns the target T1, hERG potassium channel (Homo sapiens, UniProt Q12809).
T1 construct: expressed in transfected cells; host or cells: CHO-hERG
The data set can be described thus: Automated patch clamp (Qpatch) assay for hERG potassium channel activity. The data set is classed as cell-based. On the procedure:
Assay Example 5: Automated patch clamp (Qpatch) assay for hERG potassium channel activity
CHO-hERG cells were cultured in 175 cm^2 culture flasks. When the cell density reached 60-80%, the culture medium was removed, the cells were washed once with 7 mL of PBS, and then 3 mL of cell dissociation reagent was added for digestion. After complete digestion, 7 mL of culture medium was added to neutralize, and the cells were centrifuged. The supernatant was aspirated, and the cells were resuspended in 5 mL of culture medium to achieve a cell density of 2~5 × 10^6/mL.
The compound stock solution was diluted with DMSO. 10 µL of compound stock solution was added to 20 µL of DMSO solution, followed by 3-fold serial dilution to obtain 6 DMSO concentrations. 4 µL of the compound solution at each of the six DMSO concentrations was added to 396 µL of extracellular solution to achieve a 100-fold dilution to obtain six intermediate concentrations. Then, 80 µL of the compound solution at each of the six intermediate concentrations was added to 320 µL of extracellular solution to achieve a 5-fold dilution to the desired final test concentrations. […]
The electrophysiological process was recorded. […] This voltage stimulation was applied every 15 seconds, and recorded for 2 minutes. The extracellular solution was then given, and recorded for 5 minutes. […]
The assay data were analyzed using GraphPad Prism 5.0 software. […]
On the technique in general: In patch-clamp work, channel activity is measured electrically.

The target of data set [2] is T2, CYP1A2 (Homo sapiens, UniProt P05177).
T2 sequence (P05177 1-516): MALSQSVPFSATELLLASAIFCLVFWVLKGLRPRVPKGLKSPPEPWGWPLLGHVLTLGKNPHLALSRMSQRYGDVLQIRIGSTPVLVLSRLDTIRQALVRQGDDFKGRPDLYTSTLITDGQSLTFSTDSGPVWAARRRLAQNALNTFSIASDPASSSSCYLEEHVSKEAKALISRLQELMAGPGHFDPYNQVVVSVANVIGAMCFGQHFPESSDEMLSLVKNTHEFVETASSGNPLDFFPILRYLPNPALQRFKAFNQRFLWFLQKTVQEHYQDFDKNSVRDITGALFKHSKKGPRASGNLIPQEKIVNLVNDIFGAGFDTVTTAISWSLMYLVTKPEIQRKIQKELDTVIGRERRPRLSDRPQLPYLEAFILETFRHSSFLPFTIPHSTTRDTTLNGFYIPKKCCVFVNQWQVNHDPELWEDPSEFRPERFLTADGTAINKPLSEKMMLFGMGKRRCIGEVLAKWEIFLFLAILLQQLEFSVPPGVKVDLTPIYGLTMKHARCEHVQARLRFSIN
The data set can be described thus: Drug-drug interaction evaluation: CYP inhibition in human liver microsomes (cocktail method). The method, then:
(§1) The cocktail method using specific probe substrates for CYP1A2, CYP2C9, CYP2C19, CYP2D6 and CYP3A was used to evaluate the inhibitory effect of the compounds on the activity of human liver microsomal cytochrome P450 isoenzymes (CYP1A2, CYP2C9, CYP2C19, CYP2D6 and CYP3A).
(§2) Human liver microsomes, probe substrates, positive control inhibitors, and reduced nicotinamide adenine dinucleotide phosphate (NADPH).
(§3) To the corresponding wells of a reaction plate, 20 µL of substrate solution was added; to blank wells, 20 µL of potassium phosphate buffer was added.
(§4) To the corresponding wells, 2 µL of test compound and positive control working solution were added; to inhibitor-free and blank wells, 2 µL of solvent was added.
(§5) Human liver microsome working solution was prepared, and 158 µL of human liver microsome working solution was added to each well of the reaction plate.
(§6) The plate was pre-incubated at 37.0°C for 10 minutes.
(§7) To start the reaction, 20 µL of NADPH cofactor working solution was added to the reaction plate.
(§8) After incubation in a 37.0°C water bath with mixing for 10 minutes, 400 µL of stop solution was added to terminate the reaction.
(§9) The sample plate was centrifuged at 4000 rpm for 20 minutes.
(§10) 200 µL of supernatant was taken and mixed with 100 µL of pure water as diluent, and the plate was shaken to mix well.
(§11) Analysis was performed by liquid chromatography-tandem mass spectrometry (LC-MS/MS).
(§12) Using the percentage of remaining activity as the ordinate and the test compound concentration as the abscissa, a non-linear regression analysis was performed with a three-parameter or four-parameter model using XL fit software to calculate the IC50 value.
(§13) y = (max)/(1 + (((x)/(IC50)))^−hillslope) [formula]
(§14) y = min + (max−min)/(1 + (((x)/(IC50)))^−hillslope) [formula]
(§15) max = maximum enzyme activity; min = minimum enzyme activity; x = concentration of test compound or positive control inhibitor; y = enzyme activity at the corresponding concentration; hillslope = slope; IC50 = half-maximal inhibitory concentration. The four-parameter equation was used when the minimum enzyme activity was within ±10%; otherwise the three-parameter equation was used.

Data set [3] concerns the target CYP2C9 (Homo sapiens, UniProt P11712). Described as above. On the procedure: as §1, §2, §3, §4, §5, §6, §7, §8, §9, §10, §11, §12, §13, §14, §15
Data set [4] has as its target CYP2D6 (Homo sapiens, UniProt P10635). The description is as above. The method, then: as §1, §2, §3, §4, §5, §6, §7, §8, §9, §10, §11, §12, §13, §14, §15
Data set [5] concerns the target CYP3A4 (Homo sapiens, UniProt P08684). The data set is described as above. The method, then: as §1, §2, §3, §4, §5, §6, §7, §8, §9, §10, §11, §12, §13, §14, §15
For data set [6], the target named is CYP2C19 (Homo sapiens, UniProt P33261). The description is as above. The method, then: as §1, §2, §3, §4, §5, §6, §7, §8, §9, §10, §11, §12, §13, §14, §15
CYP2C19, sequence (P33261 whole entry): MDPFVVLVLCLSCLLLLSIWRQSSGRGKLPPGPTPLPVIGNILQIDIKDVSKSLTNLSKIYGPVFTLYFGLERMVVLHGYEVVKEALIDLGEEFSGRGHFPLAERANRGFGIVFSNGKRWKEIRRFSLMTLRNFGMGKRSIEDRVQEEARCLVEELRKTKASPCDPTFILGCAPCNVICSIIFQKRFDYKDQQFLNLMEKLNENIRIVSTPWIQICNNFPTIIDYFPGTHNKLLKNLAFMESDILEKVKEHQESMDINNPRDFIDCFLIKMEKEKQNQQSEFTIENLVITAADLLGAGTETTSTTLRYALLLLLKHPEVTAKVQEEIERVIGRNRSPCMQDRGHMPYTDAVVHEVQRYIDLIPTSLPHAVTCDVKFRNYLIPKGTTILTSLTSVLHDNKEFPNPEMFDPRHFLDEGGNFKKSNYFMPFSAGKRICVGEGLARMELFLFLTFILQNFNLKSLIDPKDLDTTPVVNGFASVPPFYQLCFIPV

T1 sequence (Q12809 whole entry): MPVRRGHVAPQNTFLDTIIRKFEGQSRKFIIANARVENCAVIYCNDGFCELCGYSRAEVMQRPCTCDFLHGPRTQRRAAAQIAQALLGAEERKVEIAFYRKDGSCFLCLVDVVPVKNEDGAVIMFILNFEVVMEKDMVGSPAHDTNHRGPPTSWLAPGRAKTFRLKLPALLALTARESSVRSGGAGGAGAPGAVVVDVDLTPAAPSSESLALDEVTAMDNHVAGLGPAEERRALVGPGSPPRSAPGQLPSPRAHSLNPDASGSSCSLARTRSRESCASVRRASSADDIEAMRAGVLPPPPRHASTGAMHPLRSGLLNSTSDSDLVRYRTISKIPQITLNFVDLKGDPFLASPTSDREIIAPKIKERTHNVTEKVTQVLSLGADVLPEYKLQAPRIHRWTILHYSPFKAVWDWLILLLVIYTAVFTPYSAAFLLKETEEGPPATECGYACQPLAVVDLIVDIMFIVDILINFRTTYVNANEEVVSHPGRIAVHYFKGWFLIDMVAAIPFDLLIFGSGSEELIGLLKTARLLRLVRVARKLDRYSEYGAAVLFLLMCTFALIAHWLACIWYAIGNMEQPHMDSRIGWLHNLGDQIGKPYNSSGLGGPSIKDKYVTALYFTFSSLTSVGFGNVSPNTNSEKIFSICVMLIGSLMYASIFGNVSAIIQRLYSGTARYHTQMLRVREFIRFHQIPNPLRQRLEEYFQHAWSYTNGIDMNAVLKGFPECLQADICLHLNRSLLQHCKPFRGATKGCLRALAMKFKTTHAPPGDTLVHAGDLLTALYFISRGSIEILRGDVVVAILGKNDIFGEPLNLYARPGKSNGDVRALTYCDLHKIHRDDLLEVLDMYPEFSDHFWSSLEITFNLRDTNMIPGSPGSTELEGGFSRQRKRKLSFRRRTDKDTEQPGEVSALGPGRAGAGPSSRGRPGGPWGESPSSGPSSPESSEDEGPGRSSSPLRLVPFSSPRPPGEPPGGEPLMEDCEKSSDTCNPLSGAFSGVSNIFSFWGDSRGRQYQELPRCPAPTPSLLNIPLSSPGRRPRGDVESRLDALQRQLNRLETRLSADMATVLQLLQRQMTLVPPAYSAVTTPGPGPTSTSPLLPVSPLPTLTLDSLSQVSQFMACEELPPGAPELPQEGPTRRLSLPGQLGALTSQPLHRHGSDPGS
CYP3A4, sequence (P08684 2-503): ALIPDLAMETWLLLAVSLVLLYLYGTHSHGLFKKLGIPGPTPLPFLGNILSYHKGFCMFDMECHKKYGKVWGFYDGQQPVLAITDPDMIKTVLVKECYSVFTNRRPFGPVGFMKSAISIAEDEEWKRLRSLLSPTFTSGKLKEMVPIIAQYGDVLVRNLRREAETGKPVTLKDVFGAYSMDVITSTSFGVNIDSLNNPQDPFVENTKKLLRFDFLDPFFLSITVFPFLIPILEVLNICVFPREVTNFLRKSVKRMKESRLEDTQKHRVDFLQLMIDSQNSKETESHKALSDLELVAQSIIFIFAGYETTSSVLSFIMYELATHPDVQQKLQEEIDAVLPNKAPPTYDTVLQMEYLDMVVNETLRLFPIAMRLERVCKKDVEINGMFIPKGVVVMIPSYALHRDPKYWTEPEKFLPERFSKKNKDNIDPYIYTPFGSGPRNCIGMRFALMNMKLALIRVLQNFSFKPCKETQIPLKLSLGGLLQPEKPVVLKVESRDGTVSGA
CYP2D6, sequence (P10635 whole entry): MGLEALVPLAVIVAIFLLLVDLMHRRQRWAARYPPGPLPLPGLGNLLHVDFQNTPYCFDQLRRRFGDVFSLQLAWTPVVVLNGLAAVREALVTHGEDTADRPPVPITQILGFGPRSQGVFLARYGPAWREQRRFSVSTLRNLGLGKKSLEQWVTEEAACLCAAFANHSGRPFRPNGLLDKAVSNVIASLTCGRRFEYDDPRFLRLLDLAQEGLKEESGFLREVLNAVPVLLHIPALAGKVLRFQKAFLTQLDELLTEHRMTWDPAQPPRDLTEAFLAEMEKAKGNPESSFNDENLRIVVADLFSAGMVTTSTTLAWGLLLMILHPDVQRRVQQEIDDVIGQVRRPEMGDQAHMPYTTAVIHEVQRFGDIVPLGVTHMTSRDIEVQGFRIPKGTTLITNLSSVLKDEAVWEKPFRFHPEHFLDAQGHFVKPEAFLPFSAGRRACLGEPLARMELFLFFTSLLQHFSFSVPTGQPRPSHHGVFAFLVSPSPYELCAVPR
CYP2C9, sequence (P11712 whole entry): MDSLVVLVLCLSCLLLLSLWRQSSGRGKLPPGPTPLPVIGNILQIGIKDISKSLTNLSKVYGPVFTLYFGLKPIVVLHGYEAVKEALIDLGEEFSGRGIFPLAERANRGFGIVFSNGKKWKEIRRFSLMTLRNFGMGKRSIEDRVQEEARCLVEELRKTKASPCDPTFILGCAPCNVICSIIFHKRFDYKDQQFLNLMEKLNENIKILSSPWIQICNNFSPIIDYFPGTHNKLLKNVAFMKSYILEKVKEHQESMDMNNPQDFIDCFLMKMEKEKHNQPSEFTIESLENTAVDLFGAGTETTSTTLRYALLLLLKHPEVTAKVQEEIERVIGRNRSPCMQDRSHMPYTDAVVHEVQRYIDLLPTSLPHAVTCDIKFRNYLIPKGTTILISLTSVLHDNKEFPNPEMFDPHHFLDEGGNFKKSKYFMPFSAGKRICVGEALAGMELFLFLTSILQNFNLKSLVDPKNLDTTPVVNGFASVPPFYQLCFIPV

A word on the IC50: it is the midpoint of a concentration-inhibition curve. With `Cc1c(NC(=O)CC(C)(C)C)n(C)c2cc(Nc3ccc(F)cc3)ccc12` [Compound 1], the IC50 in data set [1] (CHO-hERG cells, Qpatch, highest test concentration 40.00 µM, read-out: IC50) is more than 40 µM.

As for `Cc1nc(Nc2ccc3c(C)c(NC(=O)CC(C)(C)C)n(C)c3c2)ccc1F` [Compound 41], the IC50 is 11 µM in data set [2]; 11 µM in data set [3]; more than 50 µM in data set [4]; more than 50 µM in data set [5]; more than 50 µM in data set [6].

On to `Cc1c(NC(=O)CC(C)(C)C)n(C)c2cc(Nc3ccc(C(F)(F)F)cc3)ccc12` [Compound 5], for which the figures for the IC50 in data set [1] and in data set [5] were more than 40 µM and more than 50 µM, respectively.
